Laboratory results published in ChEMBL document CHEMBL1129467, “Synthesis and HIV inhibition activity of 2',3'-dideoxy-3'-C-hydroxymethyl nucleosides” (1996).
“And” between values parts separate entries of the source, which are not always exact repeats. Equal entries are not always repeated.

Assays:
Assay type in all cases: functional, Homo sapiens
H9 [1] = test: Compound was tested for the cytotoxicity in H-9 cells infected with HIV-IIIB over 14 days
H9 [2] = test: Compound was tested for the cytotoxicity in H-9 cells infected with HIV-IIIB over 7 days
H9 [3] = test: Compound was tested for the inhibiting acute infection of H9 cells over 14 days 1 mM
H9 [4] = test: (§1) Compound was tested for the inhibiting acute infection of H9 cells over 7 days at 50 mM
H9 [5] = test: Compound was tested for the inhibiting acute infection of H9 cells over 7 days at 1 mM
H9 [6] = test: Compound was Tested for the inhibiting acute infection of H9 cells over 7 days at 1 mM
H9 [7] = test: Compound was tested for the effective inhibiting acute infection of H9 cells over 7 days at 100 mM
H9 [8] = test: Compound was tested for the effective inhibiting acute infection of H9 cells over 7 days at 50 mM
H9 [9] = test: as §1; remark: listed apart in the source
H9 [10] = test: Compound was tested for the cytotoxicity in H-9 cells infected with HIV-IIIB over 9 days

SMILES	P24 concentration (H9 [1]) [ng/mL]	P24 concentration (H9 [2]) [ng/mL]	other results
CCCCCCOc1ncnc2c1ncn2[C@H]1C[C@H](CO)[C@@H](CO)O1	80	1	P24 concentration (H9 [3]): 90 ng/mL; P24 concentration (H9 [4]): 1 ng/mL and 3 ng/mL; P24 concentration (H9 [5]): 2 ng/mL
COc1ncnc2c1ncn2[C@H]1C[C@H](CO)[C@@H](CO)O1	6	12	P24 concentration (H9 [5]): 80 ng/mL
Nc1ncnc2c1ncn2[C@@H]1C[C@H](CO)[C@@H](CO)O1	80	10	
OC[C@H]1C[C@H](n2cnc3cncnc32)O[C@@H]1CO	80	8	
OC[C@H]1C[C@@H](n2cnc3c(Cl)ncnc32)O[C@@H]1CO	80	2	
COc1ncnc2c1ncn2[C@@H]1C[C@H](CO)[C@@H](CO)O1	80	5	
Nc1ncnc2c1ncn2[C@H]1C[C@H](CO)[C@@H](CO)O1	2	0.5	P24 concentration (H9 [6]): 6 ng/mL; P24 concentration (H9 [3]): 90 ng/mL; P24 concentration (H9 [4]): 0.5 ng/mL and 1 ng/mL; P24 concentration (H9 [7]): 0.1 ng/mL; P24 concentration (H9 [8]): 100 ng/mL
OC[C@H]1C[C@@H](n2cnc3cncnc32)O[C@@H]1CO	80	12	P24 concentration (H9 [3]): 90 ng/mL; P24 concentration (H9 [4]): 90 ng/mL; P24 concentration (H9 [9]): 14 ng/mL; P24 concentration (H9 [5]): 6 ng/mL
CCCCCCOc1ncnc2c1ncn2[C@@H]1C[C@H](CO)[C@@H](CO)O1	80	4	
OC[C@H]1C[C@H](n2cnc3c(Cl)ncnc32)O[C@@H]1CO	80	2	
Cc1cn([C@H]2C[C@H](N=[N+]=[N-])[C@@H](CO)O2)c(=O)[nH]c1=O [ZIDOVUDINE]		100	P24 concentration (H9 [10]): 600 ng/mL
